Source: patent US11608338B2, “Imidazolonylquinolines and the use thereof as ATM kinase inhibitors” (priority 2015, dated 2023)

Experiments:
PI3K (p120γ) (human) = PI3K (p120γ) (human) (Homo sapiens (Human), UniProt P48736); assay: PI3K (p120γ) (human), non-radioactive assay (HTRF); format: biochemical; settings: ATM versus PI3Kgamma
Protocol: PI3K (p120γ) (Human), Non-Radioactive Assay
(§1) PI3K (p120γ) (human) was incubated in an assay buffer comprising 10 μM phosphatidylinositol 4,5-bisphosphate and MgATP (concentration as necessary). The reaction was initiated by addition of MgATP solution. After an incubation time of 30 min at room temperature, the reaction was stopped by addition of a solution consisting of EDTA and biotinylated phosphatidylinositol 3,4,5-trisphosphate. Finally, the detection buffer, consisting of a europium-labelled anti-GST monoclonal antibody, a GST-labelled GRP1 PH domain and streptavidin allophycocyanin, was added. The plate was read out via homogeneous time-resolved fluorescence (HTRF) and the corresponding signals were evaluated via the formula HTRF=10000×(Em665 nm/Em620 nm). • MgATP=magnesium 5′-O-[hydroxy({[(hydroxyphosphinato)oxy]phosphinato}oxy)phosphoryl]adenosine • MgCl2=magnesium dichloride • EGTA=ethylene glycol bis(aminoethyl ether) N,N,N′,N′-tetraacetic acid • Tween 20=polysorbate 20 Medicament/Pharmaceutical Composition

PI3K p110δ/p85α (human) = PI3K p110δ/p85α (human) (Homo sapiens (Human), UniProt O00329); assay: PI3K p110δ/p85α (human), non-radioactive assay (HTRF); format: biochemical; settings: ATM versus PI3Kdelta
PI3K p110δ/p85α (human), sequence (O00329 whole entry): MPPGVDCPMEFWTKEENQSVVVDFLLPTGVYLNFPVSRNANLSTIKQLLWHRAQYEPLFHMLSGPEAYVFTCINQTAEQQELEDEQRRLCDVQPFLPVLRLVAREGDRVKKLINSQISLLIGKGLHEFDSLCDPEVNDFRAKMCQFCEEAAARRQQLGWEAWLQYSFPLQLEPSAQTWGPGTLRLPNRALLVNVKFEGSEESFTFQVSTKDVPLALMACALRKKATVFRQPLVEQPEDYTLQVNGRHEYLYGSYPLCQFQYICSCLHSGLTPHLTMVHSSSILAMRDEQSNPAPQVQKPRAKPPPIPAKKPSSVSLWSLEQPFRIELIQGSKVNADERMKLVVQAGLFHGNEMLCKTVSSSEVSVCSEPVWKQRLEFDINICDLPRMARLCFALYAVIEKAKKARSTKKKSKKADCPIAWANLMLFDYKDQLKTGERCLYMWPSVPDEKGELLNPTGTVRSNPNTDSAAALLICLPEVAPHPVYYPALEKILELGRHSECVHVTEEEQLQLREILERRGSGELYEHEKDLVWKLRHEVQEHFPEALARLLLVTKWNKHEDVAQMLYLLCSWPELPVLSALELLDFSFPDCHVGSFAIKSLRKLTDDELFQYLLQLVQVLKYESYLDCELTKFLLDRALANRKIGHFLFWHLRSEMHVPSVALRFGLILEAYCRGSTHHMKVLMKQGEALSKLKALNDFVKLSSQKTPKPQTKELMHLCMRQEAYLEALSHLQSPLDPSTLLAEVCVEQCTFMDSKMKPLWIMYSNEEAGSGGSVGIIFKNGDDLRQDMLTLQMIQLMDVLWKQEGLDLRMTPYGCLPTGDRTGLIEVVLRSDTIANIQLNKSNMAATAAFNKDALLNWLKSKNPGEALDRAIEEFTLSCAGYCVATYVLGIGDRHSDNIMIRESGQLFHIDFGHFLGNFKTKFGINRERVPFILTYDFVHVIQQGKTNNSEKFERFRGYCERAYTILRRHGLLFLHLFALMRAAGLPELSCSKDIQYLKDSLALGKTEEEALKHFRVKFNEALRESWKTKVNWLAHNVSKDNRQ
PI3K p110δ/p85α (human), sequence (P27986 whole entry partner): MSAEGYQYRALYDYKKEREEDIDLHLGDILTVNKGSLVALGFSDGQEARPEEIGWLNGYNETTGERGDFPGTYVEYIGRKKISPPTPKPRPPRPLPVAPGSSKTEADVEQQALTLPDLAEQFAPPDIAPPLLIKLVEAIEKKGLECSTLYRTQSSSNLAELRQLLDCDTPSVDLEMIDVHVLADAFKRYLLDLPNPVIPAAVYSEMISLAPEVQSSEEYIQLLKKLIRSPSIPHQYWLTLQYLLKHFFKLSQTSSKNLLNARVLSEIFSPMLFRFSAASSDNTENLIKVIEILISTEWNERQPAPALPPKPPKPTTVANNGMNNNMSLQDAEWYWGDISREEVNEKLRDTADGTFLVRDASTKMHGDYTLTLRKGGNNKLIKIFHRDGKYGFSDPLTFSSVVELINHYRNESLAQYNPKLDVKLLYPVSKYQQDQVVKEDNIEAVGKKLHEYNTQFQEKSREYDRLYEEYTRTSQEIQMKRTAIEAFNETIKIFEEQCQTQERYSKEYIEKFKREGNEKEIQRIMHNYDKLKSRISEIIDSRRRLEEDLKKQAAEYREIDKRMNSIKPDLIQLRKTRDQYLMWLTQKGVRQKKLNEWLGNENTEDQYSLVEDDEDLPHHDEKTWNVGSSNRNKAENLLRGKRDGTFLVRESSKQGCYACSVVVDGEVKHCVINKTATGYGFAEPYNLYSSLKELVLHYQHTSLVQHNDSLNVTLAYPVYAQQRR
Protocol: PI3K p110δ/p85α (Human), Non-Radioactive Assay
as §1, with “p110δ/p85α” for “(p120γ)”, “nm).” for “nm). • MgATP=magnesium 5′-O-[hydroxy({[(hydroxyphosphinato)oxy]phosphinato}oxy)phosphoryl]adenosine • MgCl2=magnesium dichloride • EGTA=ethylene glycol bis(aminoethyl ether) N,N,N′,N′-tetraacetic acid • Tween 20=polysorbate 20 Medicament/Pharmaceutical Composition”

PI3K p110α/p85α (human) = PI3K p110α/p85α (human) (Homo sapiens (Human), UniProt P42336); assay: PI3K p110α/p85α (human), non-radioactive assay (HTRF); format: biochemical; settings: ATM versus PI3Kalpha
PI3K p110α/p85α (human), sequence (P42336 whole entry): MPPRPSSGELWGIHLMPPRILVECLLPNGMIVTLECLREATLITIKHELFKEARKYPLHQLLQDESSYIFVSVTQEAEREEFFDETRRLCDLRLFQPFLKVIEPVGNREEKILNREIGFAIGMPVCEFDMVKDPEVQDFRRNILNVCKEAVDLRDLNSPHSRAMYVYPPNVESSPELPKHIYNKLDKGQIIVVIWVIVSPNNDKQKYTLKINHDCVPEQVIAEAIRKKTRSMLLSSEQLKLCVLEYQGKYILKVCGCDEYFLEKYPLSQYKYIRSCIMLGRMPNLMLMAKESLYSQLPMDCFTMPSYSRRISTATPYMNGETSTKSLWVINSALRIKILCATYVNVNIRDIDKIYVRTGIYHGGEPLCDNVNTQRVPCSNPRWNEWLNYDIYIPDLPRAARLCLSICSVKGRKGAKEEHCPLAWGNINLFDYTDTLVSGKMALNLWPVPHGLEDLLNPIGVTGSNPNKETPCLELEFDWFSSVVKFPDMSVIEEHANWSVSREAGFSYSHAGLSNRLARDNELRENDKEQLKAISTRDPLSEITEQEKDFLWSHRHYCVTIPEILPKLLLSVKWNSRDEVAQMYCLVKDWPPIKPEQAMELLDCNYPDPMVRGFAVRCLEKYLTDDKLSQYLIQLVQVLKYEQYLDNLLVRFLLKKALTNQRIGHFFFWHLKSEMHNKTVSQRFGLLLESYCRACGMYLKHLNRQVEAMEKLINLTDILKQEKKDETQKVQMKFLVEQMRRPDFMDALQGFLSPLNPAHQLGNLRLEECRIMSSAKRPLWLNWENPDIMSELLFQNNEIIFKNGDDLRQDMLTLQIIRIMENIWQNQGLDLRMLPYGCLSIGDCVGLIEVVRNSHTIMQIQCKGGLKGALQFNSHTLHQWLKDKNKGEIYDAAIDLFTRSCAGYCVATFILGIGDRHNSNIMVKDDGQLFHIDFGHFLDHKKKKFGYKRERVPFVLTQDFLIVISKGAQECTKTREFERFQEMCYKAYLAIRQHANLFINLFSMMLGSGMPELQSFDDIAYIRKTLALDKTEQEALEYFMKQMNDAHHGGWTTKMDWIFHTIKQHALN
PI3K p110α/p85α (human), sequence (P27986 whole entry partner): as the sequence (P27986 whole entry partner) above
Protocol: PI3K p110α/p85α (Human), Non-Radioactive Assay
(§2) PI3K p110α/p85α (human) was incubated in an assay buffer comprising 10 μM phosphatidylinositol 4,5-bisphosphate and MgATP (concentration as necessary). The reaction was initiated by addition of MgATP solution. After incubation at room temperature for 40 minutes, the reaction was stopped by addition of a solution consisting of EDTA and biotinylated phosphatidylinositol 3,4,5-trisphosphate. Finally, the detection buffer, consisting of a europium-labelled anti-GST monoclonal antibody, a GST-labelled GRP1 PH domain and streptavidin allophycocyanin, was added. The plate was read out via homogeneous time-resolved fluorescence (HTRF) and the corresponding signals were evaluated via the formula HTRF=10000×(Em665 nm/Em620 nm).

mTOR (human) = mTOR (human) (Homo sapiens (Human), UniProt P42345); assay: mTOR (human) radiometric kinase assay; format: biochemical; settings: ATM versus mTOR
Protocol: Furthermore, the effect, in particular inhibition, of other kinases and thus the selectivity of the compounds according to the invention can be determined with the aid of the following assay:
mTOR (human) was incubated with 50 mM HEPES pH 7.5, 1 mM EGTA, 0.01% Tween 20, 2 mg/ml of the substrate, 3 mM MnCl2 and [γ-^33P-ATP] (specific activity approximately 500 cpm/pmol, concentration as necessary). The reaction was initiated by addition of MgATP solution. After incubation at room temperature for 40 minutes, the reaction was stopped by addition of 3% phosphoric acid. 10 μl of the reaction solution were then transferred dropwise onto a P30 filtermat and washed three times for 5 min in 75 mM phosphoric acid and once in methanol, dried and evaluated by means of liquid scintillation counting.

PI3K p110β/p85α (human) = PI3K p110β/p85α (human) (Homo sapiens (Human), UniProt P42338); assay: PI3K p110β/p85α (human), non-radioactive assay (HTRF); format: biochemical; settings: ATM versus PI3Kbeta
PI3K p110β/p85α (human), sequence (P42338 whole entry): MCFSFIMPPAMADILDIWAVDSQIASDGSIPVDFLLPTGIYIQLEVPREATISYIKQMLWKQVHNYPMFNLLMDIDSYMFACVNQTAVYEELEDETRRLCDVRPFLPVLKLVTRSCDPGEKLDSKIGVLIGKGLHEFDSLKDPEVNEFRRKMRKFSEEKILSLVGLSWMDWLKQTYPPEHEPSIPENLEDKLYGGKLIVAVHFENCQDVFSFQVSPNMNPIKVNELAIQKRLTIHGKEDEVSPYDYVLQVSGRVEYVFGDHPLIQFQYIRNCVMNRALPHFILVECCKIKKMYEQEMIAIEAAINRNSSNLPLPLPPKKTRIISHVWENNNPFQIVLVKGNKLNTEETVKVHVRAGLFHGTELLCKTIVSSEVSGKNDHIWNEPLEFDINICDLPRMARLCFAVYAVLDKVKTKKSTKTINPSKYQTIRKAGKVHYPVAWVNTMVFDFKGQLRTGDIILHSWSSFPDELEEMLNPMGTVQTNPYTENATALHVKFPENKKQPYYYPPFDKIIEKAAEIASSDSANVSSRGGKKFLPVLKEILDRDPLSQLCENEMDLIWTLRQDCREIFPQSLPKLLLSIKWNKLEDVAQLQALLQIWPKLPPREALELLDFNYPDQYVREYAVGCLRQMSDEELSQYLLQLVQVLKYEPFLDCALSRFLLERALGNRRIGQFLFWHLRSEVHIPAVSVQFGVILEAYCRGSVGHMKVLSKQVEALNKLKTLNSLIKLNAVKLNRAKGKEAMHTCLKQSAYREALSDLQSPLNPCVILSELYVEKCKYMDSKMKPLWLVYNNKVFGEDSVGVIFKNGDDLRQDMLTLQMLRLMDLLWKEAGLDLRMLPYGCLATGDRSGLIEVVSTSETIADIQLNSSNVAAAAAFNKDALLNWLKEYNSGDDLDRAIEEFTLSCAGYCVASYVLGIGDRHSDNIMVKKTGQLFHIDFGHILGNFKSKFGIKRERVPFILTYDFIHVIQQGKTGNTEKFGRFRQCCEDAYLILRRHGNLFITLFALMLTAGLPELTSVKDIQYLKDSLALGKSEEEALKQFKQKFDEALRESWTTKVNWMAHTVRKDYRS
PI3K p110β/p85α (human), sequence (P27986 whole entry partner): as the sequence (P27986 whole entry partner) above
Protocol: PI3K p110β/p85α (Human), Non-Radioactive Assay
as §2, with “p110β/p85α” for “p110α/p85α”, “After an” for “After”, “incubation time of 30 min” for “incubation”, “temperature,” for “temperature for 40 minutes,”

[1] = target: human recombinant ATM (ataxia telangiectasia mutated) kinase (Homo sapiens (Human), UniProt Q13315); assay: ATM kinase assay, determination of ATM inhibition (IC50 ATM), TR-FRET; format: biochemical; settings: 10 μM ATP, p53 substrate
Protocol: ATM Kinase Assay—Determination of ATM Inhibition (IC50 ATM):
The IC50 value was determined with the aid of a biochemical ATM kinase assay. The assay consists of two steps: the enzymatic reaction and the detection step. Firstly, ATM (ataxia telangiectasia mutated) protein and the test substance are incubated at different concentrations with addition of substrate protein p53 and ATP. ATM mediates the phosphorylation of p53 at several positions, including at amino acid S15. The amount of phosphorylated p53 is determined with the aid of specific antibodies and the TR-FRET technique. The enzymatic ATM assay is carried out as TR-FRET (HTRF™, Cisbio Bioassays) based 384-well assay. In the first step, purified human recombinant ATM (human ATM, full length, GenBank ID NM_000051, expressed in a mammal cell line) is incubated in assay buffer for 15 minutes with the ATM inhibitor in various concentrations and without test substance as negative or neutral control. The assay buffer comprises 25 mM HEPES pH 8.0, 10 mM Mg(CH3COO)2, 1 mM MnCl2, 0.1% BSA and 0.01% Brij® 35, 5 mM dithiothreitol (DTT). […] After incubation, usually for 2 hours (between 1.5 and 15 h), for signal development, the plates are analysed in a plate reader (EnVision, PerkinElmer) using TRF mode (and with laser excitation). […]

[2] = system: phosphorylation of CHK2 (Thr68) in HCT116 cells; assay: Cellular pCHK2 assay, bleomycin-induced phosphorylation of CHK2 (phospho-Thr68), immunofluorescence high content; format: cell-based, human; settings: 10 μM bleomycin, 4 h
From the text: For the identification of substances which inhibit the phosphorylation of the protein kinase CHK2 at the amino acid threonine 68, an immunofluorescence-based “high content” analysis assay was used in HCT116 cells.
In vitro cell-based immunofluorescence assay for the identification of inhibitors of bleomycin-induced phosphorylation of CHK2 (phospho-Thr68) in the human colon carcinoma cell line HCT116:
HCT116 cells are sown out in a defined cell density in 384-well plates in culture medium (DMEM high glucose, 2 mM GlutaMax, 1 mM Na pyruvate, 10% FCS) and incubated overnight at 37° C. and 10% of CO2. […] After incubation for four hours at 37° C. and 10% of CO2, the cells are fixed (5 min, 4% formaldehyde in PBS), permeabilised (10 min, 0.2% Triton X-100 in PBS) and, after blocking of nonspecific binding sites (10% goat serum, 1% BSA in PBS), incubated overnight at 4° C. with a specific anti-pCHK2 antibody (cell signalling #2661). pCHK2 (Thr68) is determined using an Alexa488-labelled secondary anti-rabbit IgG antibody. […] The pCHK2 signal is detected using a high-content imager (Molecular Devices IMX Ultra) and automatic image analysis using the MetaXpress software belonging to the instrument. The number of cell nuclei which have a pCHK2 signal above a defined background is determined.

PI3K (p120γ) (human), sequence (P48736 whole entry): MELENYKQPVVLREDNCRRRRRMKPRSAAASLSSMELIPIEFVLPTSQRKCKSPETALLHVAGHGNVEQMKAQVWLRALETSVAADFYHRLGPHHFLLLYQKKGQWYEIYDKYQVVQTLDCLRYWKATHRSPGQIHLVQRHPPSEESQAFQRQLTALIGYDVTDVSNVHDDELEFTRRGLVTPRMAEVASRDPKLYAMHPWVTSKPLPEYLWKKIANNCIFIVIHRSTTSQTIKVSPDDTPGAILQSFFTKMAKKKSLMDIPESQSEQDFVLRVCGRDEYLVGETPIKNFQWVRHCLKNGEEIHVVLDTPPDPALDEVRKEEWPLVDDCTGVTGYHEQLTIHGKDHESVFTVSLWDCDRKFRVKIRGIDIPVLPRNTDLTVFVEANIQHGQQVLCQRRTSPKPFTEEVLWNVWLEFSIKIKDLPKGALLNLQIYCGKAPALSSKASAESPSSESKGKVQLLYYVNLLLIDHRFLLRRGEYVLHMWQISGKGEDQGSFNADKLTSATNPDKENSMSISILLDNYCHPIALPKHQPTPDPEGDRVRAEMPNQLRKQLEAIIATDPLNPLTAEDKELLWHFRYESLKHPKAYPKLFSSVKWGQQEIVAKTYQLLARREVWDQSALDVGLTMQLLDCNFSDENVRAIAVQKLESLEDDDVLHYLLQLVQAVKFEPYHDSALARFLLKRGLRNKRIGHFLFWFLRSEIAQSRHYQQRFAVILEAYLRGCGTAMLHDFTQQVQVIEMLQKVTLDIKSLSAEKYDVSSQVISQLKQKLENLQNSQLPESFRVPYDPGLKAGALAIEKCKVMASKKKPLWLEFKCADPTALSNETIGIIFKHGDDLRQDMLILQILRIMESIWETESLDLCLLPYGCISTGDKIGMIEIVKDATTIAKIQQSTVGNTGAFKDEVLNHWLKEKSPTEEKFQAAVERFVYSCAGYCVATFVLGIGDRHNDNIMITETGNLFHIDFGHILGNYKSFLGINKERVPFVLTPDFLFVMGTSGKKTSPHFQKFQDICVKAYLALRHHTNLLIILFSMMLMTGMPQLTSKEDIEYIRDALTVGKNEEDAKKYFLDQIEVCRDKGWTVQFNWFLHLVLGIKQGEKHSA

| ratio of IC50 (ATM) and IC50 (PI3Kalpha), selectivity with respect to PI3Kalpha (PI3K p110α/p85α (human)) | Compound | ratio of IC50 (ATM) and IC50 (PI3Kgamma), selectivity with respect to PI3Kgamma (PI3K (p120γ) (human)) | ratio of IC50 (ATM) and IC50 (PI3Kdelta), selectivity with respect to PI3Kdelta (PI3K p110δ/p85α (human)) | ratio IC50 (ATM):IC50 (mTOR), selectivity with respect to mTOR (mTOR (human)) | ratio IC50 (ATM):IC50 (PI3Kbeta), selectivity with respect to PI3Kbeta (PI3K p110β/p85α (human)) | IC50 [1] [nM] | IC50 [2] [nM] |
| --- | --- | --- | --- | --- | --- | --- | --- |
| at least 2000 times | CCc1cncc(F)c1-n1c(=O)n(C)c2cnc3cc(OC)c(-c4cn[nH]n4)cc3c21 [Example 125, 1-(3-Ethyl-5-fluoropyridin-4-yl)-7-methoxy-3-methyl-8-(2H-1,2,3-triazol-4-yl)-1,3-dihydroimidazo[4,5-c] quinolin-2-one] | at least 2000 times | at least 2000 times | at least 2000 times | at least 2000 times |  |  |
|  | 1-(3,5-Dimethyl-1H-pyrazol- 4-yl)-7-methoxy-3-methyl-8- (1-methyl-1H-pyrazol-4-yl)- 1,3-dihydroimidazo[4,5-c]- quinolin-2-one [Example 118] |  |  | at least 2000 times | at least 2000 times | < 10 | 200 to 1000 |
|  | COc1ccc(-c2cc3c(cc2OC)ncc2c3n(-c3cn(C)nc3F)c(=O)n2C)cn1 [Example 159, 1-(3-Fluoro-1-methyl-1H-pyrazo1-4-yl)-7-methoxy-8-(6-methoxypyridin-3-yl)-3-methyl-1,3-dihydroimidazo-[4,5-c]quinolin-2-one] |  |  | at least 2000 times | at least 2000 times |  |  |
|  | [2H]C([2H])([2H])Oc1cncc(F)c1-n1c(=O)n(C)c2cnc3cc(OC)c(-c4cnn(C)c4)cc3c21 [Example 145, 1-[3-Fluoro-5-(trideuterio-methoxy)-4-pyridyl]-7-methoxy-3-methyl-8-(1-methylpyrazol-4-yl)imidazo-[4,5-c]quinolin-2-one] | at least 2000 times | at least 2000 times | at least 2000 times | at least 2000 times |  |  |
|  | COc1cc2ncc3c(c2cc1-c1ccc2nc(C)[nH]c2c1)n(-c1c(F)cncc1OC)c(=O)n3C [Example 136, 1-(3-Fluoro-5-methoxy-pyridin-4-yl)-7-methoxy-3-methyl-8-(2-methyl-3H-benzoimidazol-5-yl)-1,3-dihydroimidazo[4,5-c]-quinolin-2-one] | at least 2000 times |  | at least 2000 times | at least 2000 times |  |  |
| at least 2000 times | COc1cc2ncc3[nH]c(=O)n(-c4ncc(F)cc4F)c3c2cc1-c1cn(C)nc1C [Example 108, 1-(3,5-Difluoropyridin-2-yl)-8-(1,3-dimethyl-1H-pyrazol-4-yl)-7-methoxy-1,3-dihydroimidazo[4,5-c]-quinolin-2-one] | at least 2000 times | at least 2000 times |  | at least 2000 times |  |  |

| Compound | ratio of IC50 (ATM) and IC50 (PI3Kalpha), selectivity with respect to PI3Kalpha (PI3K p110α/p85α (human)) | ratio of IC50 (ATM) and IC50 (PI3Kgamma), selectivity with respect to PI3Kgamma (PI3K (p120γ) (human)) | ratio of IC50 (ATM) and IC50 (PI3Kdelta), selectivity with respect to PI3Kdelta (PI3K p110δ/p85α (human)) | ratio IC50 (ATM):IC50 (mTOR), selectivity with respect to mTOR (mTOR (human)) | ratio IC50 (ATM):IC50 (PI3Kbeta), selectivity with respect to PI3Kbeta (PI3K p110β/p85α (human)) | IC50 [1] [nM] | IC50 [2] [nM] |
| --- | --- | --- | --- | --- | --- | --- | --- |
| COc1cc2ncc3c(c2cc1-c1cnn(C)c1)n(-c1ncc(OCS(C)(=O)=O)cc1F)c(=O)n3C [Example 201, 1-(3-Fluoro-5-methyl-sulfonylmethoxypyridin-2-yl)-7-methoxy-3-methyl-8-(1-methyl-1H-pyrazol-4-yl)-1,3-dihydroimidazo[4,5-c]-quinolin-2-one] | at least 2000 times | at least 2000 times | at least 2000 times | at least 2000 times | at least 2000 times |  |  |
